# Reference: patent publication US20170314074A1, “LPA-ASSOCIATED PROTEIN AND RNA EXPRESSION” (Intermune, Inc., priority 2014, published 2017)
# Tested on: normal human lung fibroblasts, human bronchial epithelial cells, and human pulmonary alveolar epithelial cells
# Experiment: Secreted protein expression after LPA induction, aptamer-based proteomic platform (SomaLogic, 1129 proteins)
# Type: cell-based
# Settings: 24 hours
# Procedure: Changes in gene expression after 3 hours of LPA induction were profiled on Affymetrix Human Gene ST 2.0 microarrays; differentially expressed genes identified by ANOVA with FDR <0.05 and fold-change >1.2. Process networks associated with differentially expressed genes were defined using MetaCore. Changes in secreted protein expression after 24 hours of LPA induction were profiled on an aptamer-based proteomic platform (1129 proteins); differentially expressed proteins identified by t-test.
# Treatment of cells with LPA, isolation supernatant, analysis of secreted protein expression using soma panel was performed as follows: Supernatant was collected from in vitro cultures of normal human lung fibroblasts, human bronchial epithelial cells, and human pulmonary alveolar epithelial cells treated for 24 hours with LPA and/or LPAR1 inhibitor. Each treatment condition was assayed in triplicate. 1129 proteins were profiled using a broad aptamer-based proteomic platform (SomaLogic, Colo., US). Briefly, the technology uses DNA aptamers containing chemically modified nucleotides as highly specific protein binding reagents in a multiplexed assay that transforms the quantity of each targeted protein into a corresponding quantify of the aptamer. Protein quantities are then detected on a microarray platform and recorded as Relative Fluorescence Units (RFU).
# In Tables 1-5 The differentially expressed secreted proteins set forth in Tables 1, 2, and 5 and the differentially expressed mRNAs set forth in Table 3 and 4 were identified by visual inspection of individual dot-plots.
# For the gene and protein expression analysis primary fibroblasts (NHLF product #CC-2512 from Lonza group LTD) and primary epithelial cells (NHBE Product #CC-2540 from Lonza; HPAEpiC Product #3200 from Sciencell (USA, California)) were cultured as recommended by the manufacturer, except they were cultured on collagen coated plates. As part of the induction protocol cells were starved overnight in low (0.2 or 0.1% serum) or no serum (0%), prior to stimulation with LPA.
substance,measurement,value
lysophosphatidic acid [LPA],"effect of LPA, 41 (EPB41)",up
same,"effect of LPA, ADAM 9 (ADAM9)",up
same,"effect of LPA, ALCAM (ALCAM)",up
same,"effect of LPA, ANGL4 (ANGPTL4)",up
same,"effect of LPA, AREG (AREG)",up
same,"effect of LPA, ARTS1 (ERAP1)",up
same,"effect of LPA, ASM3A (SMPDL3A)",up
same,"effect of LPA, ATS1 (ADAMTS1)",down
same,"effect of LPA, Activin A (INHBA)",up
same,"effect of LPA, Aminoacylase-1 (ACY1)",up
same,"effect of LPA, Angiogenin (ANG)",up
same,"effect of LPA, Angiopoietin-1 (ANGPT1)",up
same,"effect of LPA, Angiopoietin-2 (ANGPT2)",down
same,"effect of LPA, Angiostatin (PLG)",down
same,"effect of LPA, Apo E2 (APOE)",down
same,"effect of LPA, Apo E3 (APOE)",down
same,"effect of LPA, B7-H1 (CD274)",up
same,"effect of LPA, BASI (BSG)",up
same,"effect of LPA, BFL1 (BCL2A1)",up
same,"effect of LPA, BGH3 (TGFBI)",up
same,"effect of LPA, BGN (BGN)",up
same,"effect of LPA, BSSP4 (PRSS22)",up
same,"effect of LPA, Bone proteoglycan II (DCN)",up
same,"effect of LPA, CAPG (CAPG)",up
same,"effect of LPA, CATZ (CTSZ)",up
same,"effect of LPA, CK2-A1:B (CSNK2A1 CSNK2B)",up
same,"effect of LPA, COMMD7 (COMMD7)",up
same,"effect of LPA, CRDL1 (CHRDL1)",up
same,"effect of LPA, CTAP-III (PPBP)",up
same,"effect of LPA, Caspase-3 (CASP3)",up
same,"effect of LPA, Cathepsin A (CTSA)",up
same,"effect of LPA, Cathepsin H (CTSH)",up
same,"effect of LPA, Cathepsin S (CTSS)",up
same,"effect of LPA, Cathepsin V (CTSL2)",up
same,"effect of LPA, Coagulation Factor Xa (F10)",down
same,"effect of LPA, Cofilin-1 (CFL1)",up
same,"effect of LPA, Cyclophilin A (PPIA)",up
same,"effect of LPA, Cystatin M (CST6)",up
same,"effect of LPA, DAF (CD55)",up
same,"effect of LPA, DBNL (DBNL)",up
same,"effect of LPA, DERM (DPT)",down
same,"effect of LPA, DKK1 (DKK1)",up
same,"effect of LPA, DKK3 (DKK3)",up
same,"effect of LPA, DPP2 (DPP7)",up
same,"effect of LPA, DcR3 (TNFRSF6B)",up
same,"effect of LPA, Discoidin domain receptor 2 (DDR2)",up
same,"effect of LPA, Dkk-4 (DKK4)",up
same,"effect of LPA, EMR2 (EMR2)",up
same,"effect of LPA, ENA-78 (CXCL5)",up
same,"effect of LPA, EPHA3 (EPHA3)",up
same,"effect of LPA, EPI (EREG)",up
same,"effect of LPA, Elafin (PI3)",up
same,"effect of LPA, Endocan (ESM1)",up
same,"effect of LPA, Endothelin-converting enzyme 1 (ECE1)",up
same,"effect of LPA, Eotaxin (CCL11)",up
same,"effect of LPA, EphB4 (EPHB4)",up
same,"effect of LPA, Ephrin-A5 (EFNA5)",up
same,"effect of LPA, Ephrin-B3 (EFNB3)",up
same,"effect of LPA, Epithelial cell kinase (EPHA2)",up
same,"effect of LPA, FCAR (FCAR)",down
same,"effect of LPA, FGF7 (FGF7)",up
same,"effect of LPA, FGF-18 (FGF18)",down
same,"effect of LPA, FGF-20 (FGF20)",up
same,"effect of LPA, FST (FST)",up
same,"effect of LPA, FSTL3 (FSTL3)",up
same,"effect of LPA, Flt-3 (FLT3)",up
same,"effect of LPA, G-CSF (CSF3)",up
same,"effect of LPA, GAPDH liver (GAPDH)",up
same,"effect of LPA, GCP-2 (CXCL6)",up
same,"effect of LPA, GDF-9 (GDF9)",down
same,"effect of LPA, GREM1 (GREM1)",up
same,"effect of LPA, GRN (GRN)",up
same,"effect of LPA, GV (PLA2G5)",up
same,"effect of LPA, Galectin-3 (LGALS3)",up
same,"effect of LPA, Gro-a (CXCL1)",up
same,"effect of LPA, Gro-b/g (CXCL3 CXCL2)",up
same,"effect of LPA, HGF (HGF)",up
same,"effect of LPA, IDE (IDE)",up
same,"effect of LPA, IGF-I sR (IGF1R)",up
same,"effect of LPA, IGF-II receptor (IGF2R)",up
same,"effect of LPA, IGFBP-2 (IGFBP2)",down
same,"effect of LPA, IGFBP-3 (IGFBP3)",up
same,"effect of LPA, IGFBP-7 (IGFBP7)",up
same,"effect of LPA, IL-1 R4 (IL1RL1)",up
same,"effect of LPA, IL-6 (IL6)",up
same,"effect of LPA, IL-6 sRa (IL6R)",up
same,"effect of LPA, IL-8 (IL8)",up
same,"effect of LPA, IL-11 (IL11)",up
same,"effect of LPA, IL-12 RB2 (IL12RB2)",up
same,"effect of LPA, IL-17D (IL17D)",up
same,"effect of LPA, IP-10 (CXCL10)",up
same,"effect of LPA, JAG1 (JAG1)",up
same,"effect of LPA, JAG2 (JAG2)",up
same,"effect of LPA, KPCI (PRKCI)",up
same,"effect of LPA, LG3BP (LGALS3BP)",up
same,"effect of LPA, LGMN (LGMN)",up
same,"effect of LPA, LRIG3 (LRIG3)",up
same,"effect of LPA, Layilin (LAYN)",up
same,"effect of LPA, MCP-1 (CCL2)",up
same,"effect of LPA, MCP-3 (CCL7)",up
same,"effect of LPA, MICA (MICA)",up
same,"effect of LPA, MICB (MICB)",up
same,"effect of LPA, MIP-3a (CCL20)",up
same,"effect of LPA, MMP-1 (MMP1)",up
same,"effect of LPA, MMP-3 (MMP3)",up
same,"effect of LPA, MMP-9 (MMP9)",up
same,"effect of LPA, MMP-10 (MMP10)",up
same,"effect of LPA, MMP-12 (MMP12)",up
same,"effect of LPA, MMP-13 (MMP13)",up
same,"effect of LPA, MRC2 (MRC2)",up
same,"effect of LPA, Met (MET)",up
same,"effect of LPA, Midkine (MDK)",up
same,"effect of LPA, NAGK (NAGK)",up
same,"effect of LPA, NAP-2 (PPBP)",up
same,"effect of LPA, NCAM-L1 (L1CAM)",up
same,"effect of LPA, NET4 (NTN4)",up
same,"effect of LPA, NID2 (NID2)",up
same,"effect of LPA, NKp46 (NCR1)",up
same,"effect of LPA, NRP1 (NRP1)",up
same,"effect of LPA, NRX3B (NRXN3)",up
same,"effect of LPA, NXPH1 (NXPH1)",up
same,"effect of LPA, Neurotrophin-3 (NTF3)",up
same,"effect of LPA, Nogo Receptor (RTN4R)",up
same,"effect of LPA, NovH (NOV)",up
same,"effect of LPA, OMD (OMD)",up
same,"effect of LPA, ON (SPARC)",up
same,"effect of LPA, PAI-1 (SERPINE1)",up
same,"effect of LPA, PARK7 (PARK7)",up
same,"effect of LPA, PCSK7 (PCSK7)",up
same,"effect of LPA, PDGF-AA (PDGFA)",up
same,"effect of LPA, PDGF-BB (PDGFB)",up
same,"effect of LPA, PTHrP (PTHLH)",up
same,"effect of LPA, Protease nexin I (SERPINE2)",up
same,"effect of LPA, RAC1 (RAC1)",up
same,"effect of LPA, RANTES (CCL5)",up
same,"effect of LPA, RAP (LRPAP1)",up
same,"effect of LPA, RGMB (RGMB)",up
same,"effect of LPA, ROBO2 (ROBO2)",up
same,"effect of LPA, SARP-2 (SFRP1)",up
same,"effect of LPA, SCGF-alpha (CLEC11A)",up
same,"effect of LPA, SDF-1 (CXCL12)",up
same,"effect of LPA, SLIK5 (SLITRK5)",up
same,"effect of LPA, ST4S6 (CHST15)",up
same,"effect of LPA, Semaphorin 3A (SEMA3A)",up
same,"effect of LPA, Sphingosine kinase 1 (SPHK1)",up
same,"effect of LPA, Spondin-1 (SPON1)",down
same,"effect of LPA, TAJ (TNFRSF19)",up
same,"effect of LPA, TFPI (TFPI)",up
same,"effect of LPA, TGF-b R III (TGFBR3)",up
same,"effect of LPA, TIG2 (RARRES2)",up
same,"effect of LPA, TIMP-3 (TIMP3)",up
same,"effect of LPA, TNF sR-I (TNFRSF1A)",up
same,"effect of LPA, TNF sR-II (TNFRSF1B)",up
same,"effect of LPA, TNFSF15 (TNFSF15)",up
same,"effect of LPA, TSG-6 (TNFAIP6)",up
same,"effect of LPA, TSLP (TSLP)",up
same,"effect of LPA, TSP2 (THBS2)",up
same,"effect of LPA, TWEAK (TNFSF12)",down
same,"effect of LPA, TXD12 (TXNDC12)",up
same,"effect of LPA, Thrombospondin-1 (THBS1)",up
same,"effect of LPA, TrATPase (ACP5)",down
same,"effect of LPA, UNC5H3 (UNC5C)",up
same,"effect of LPA, URB (CCDC80)",up
same,"effect of LPA, VEGF121 (VEGFA)",up
same,"effect of LPA, VEGF (VEGFA)",up
same,"effect of LPA, VEGF-C (VEGFC)",up
same,"effect of LPA, WKFN1 (GPRASP2)",down
same,"effect of LPA, annexin I (ANXA1)",up
same,"effect of LPA, discoidin domain receptor 1 (DDR1)",up
same,"effect of LPA, eIF-5A-1 (EIF5A)",down
same,"effect of LPA, sFRP-3 (FRZB)",down
same,"effect of LPA, suPAR (PLAUR)",up
same,"effect of LPA, uPA (PLAU)",up
